Laboratory results published in patent publication US20130344065A1, “Combination Treatment with VEGF-C Antagonists” (Vegenics Pty Ltd, priority 2010, published 2013).
Where “and” joins values, the source holds several entries; their conditions need not be identical. Equal entries are not always repeated.

Assays:
[1] = tested on: PC-3 human prostate carcinoma xenografts; test: PC-3 xenograft combination therapy (Example 3, first study); details: for Tumor Growth Delay: T-C, evaluation size 750 mg; for % T/C Day 22: VGX-100 40 mg/kg IP, bevacizumab 10 mg/kg IP, docetaxel 10 mg/kg IV, median tumor mass vs control; for % TFS (tumor free survivors): at termination, Day 160; for Complete regression / Partial regression / Tumor free survivor: yes/no; for Total CR / Total PR / Total TFS: number of animals of 10;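 as to all read-outs here: subcutaneous PC-3 tumors in male athymic NCr nude mice aged 6-7 weeks, combination agents dosed within 30 min of each other, animals euthanized once tumors exceeded 2 g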
Procedure: Docetaxel was administered intravenously at 10 mg/kg weekly for three injections.
HIgG1 Isotype control-humanised antibody (6.4-12.36 mg/ml) and VGX-100 (5.53 and 5.75 mg/ml) were provided as frozen colorless stock solutions in Dulbecco's phosphate buffered saline (DPBS) and stored from light at −80° C. The stock solutions were thawed and stored at 4° C. when treatment began. The dosing solutions (40 mg/kg in 0.2 ml/20 g body weight) were prepared by diluting the stock solution with DPBS. The resulting formulations were clear with pH values ranging from 7.02-7.21. The dosing vials were kept on wet ice during dosing, gently pipetted and not aspirated through a needle except during administration. Dosing solutions were prepared weekly in DPBS and stored protected from light at 4° C. while not in use.
Docetaxel (lot no. D9A095) was manufactured by Sanofi-Aventis and obtained from McKesson as a pale yellow solution in 50% EtOH/50% Tween80. It was stored protected from light at 4° C. Docetaxel was diluted as directed on the package insert with the provided diluent (sterile water) to produce a clear and colorless 10 mg/ml stock solution. On each treatment day, a fresh 10 mg/ml stock was prepared and further diluted with water to achieve the appropriate concentration. The resulting solution was clear and colorless with a pH of 7.16.
All test articles were administered within two hours of preparation. For groups receiving combination therapy, the drugs were administered in the order presented in Table 1 and within 30 minutes of one another.
Male NCR(NCRNU-M) athymic mice were obtained from Taconic. They were 6-7 weeks old on Day 1 of the experiment. The mice were fed irradiated Rodent Diet 5053 (LabDiet™) and water ad libitum. The mice were housed in static cages with Bed-O'Cobs™ bedding inside Biobubble® Clean Rooms that provide H.E.P.A filtered air into the bubble environment at 100 complete air changes per hour. All treatments, body weight determinations, and tumor measurements were carried out in the bubble environment. The environment was controlled to a temperature range of 21.1±1.1° C. (70±2° F.) and a humidity range of 30-70%.
Test mice were implanted subcutaneously on Day 0. […] Mice with tumors in excess of 2 g or with ulcerated tumors were euthanized, as were those found in obvious distress or in a moribund condition.
PC-3 cells were obtained from ATCC and expanded using Ham's F-12 media supplemented with 10% fetal bovine serum and 1% penicillin-streptomycin-glutamine in 5% CO2 atmosphere at 37° C. When expansion was complete, the cells were collected using Trypsin (Cell Gro®), the trypsin neutralized, and the cells pooled for implantation. The PC-3 (Passage 10) cell suspension was counted using trypan blue exclusion with a hemacytometer. The cell suspension was reduced to a pellet using an Eppendorf 5810R centrifuge at 1500 rpm (300×g) for 5 minutes at 4° C. A 2.5×10^7 cells/ml suspension was prepared in 50% serum free media and 50% Matrigel®. Pre-injection viability was 97.7%. Test animals were implanted subcutaneously on Day 0 with 5×10^6 cells/animal (0.2 ml) using a 27-gauge needle and syringe. The cell suspension was maintained on wet ice to minimize the loss of viability and inverted frequently to maintain a uniform cell suspension during the inoculation procedure.
Treatments began on Day 8, when the mean estimated tumor mass for all groups in the experiment was 129 mg (range of group means, 123-134 mg). All animals weighed≧19.2 g at the initiation of therapy. Mean group body weights at first treatment were matched (range of group means, 21.5-22.8 g). All animals were dosed according to individual body weight on the day of treatment (0.2 ml/20 g).

[2] = tested on: metastatic colorectal cancer; details: cited from earlier work
[3] = tested on: KP4 human pancreatic tumors; test: KP4 pancreatic xenograft (Example 8); details: VGX-100 40 mg/kg and/or Avastin 10 mg/kg; for % T/C: after 30 days
Procedure: VGX-100 was administered at 20 or 40 mg/kg for single therapy and at 40/mg/kg for combination therapy.
To initiate the study, 5×10^6 of KP4 cells suspended in 100 μl of a mixture of medium/Matrigel (1:1) were subcutaneously implanted to the nude mice in the right flank region. Cancer cells were implanted into 90 mice. Animals were monitored for tumor growth daily after cell implantation. When tumor volumes reached 80-100 mm^3, mice were randomized into 5 groups of 10 mice each using only mice having tumor volumes closest to the mean value. Mice with tumor volumes too big or too small were excluded from the study. Tumor volumes were measured using the formula V=L×W×H×π/6, where L and W represented the longer and shorter diameters of the tumor and H represented the height of the tumor. The treatment with drugs was initiated on the day after randomization. […] All treatments were administered intraperitoneally twice weekly for 30 days.
Throughout the entire study, tumor volumes were measured twice weekly and body weights once weekly. […] Unscheduled sacrifices were performed if tumor volumes reached>2,000 mm^3, animals lost>25% of their original body weights, tumor ulceration appeared, or mice became moribund. At the end of the experiment, tumors were removed, embedded in Optimal Cutting Temperature (OCT), and stored at −80° C. for IHC analysis. Gross examination was conducted on liver, lung, spleen, kidneys, testes, and prostate. If no abnormal observation was detected on these organs, the tissues were discarded.
Tumor size was measured 2-3 times weekly with calipers. Size of tumors relative to controls is calculated after 30 days of treatment.

[4] = tested on: U87MG human glioblastoma tumors; test: U87MG glioblastoma xenograft, combination (Example 7); format: in vivo, nude mice; details: VGX-100 40 mg/kg, bevacizumab 10 mg/kg, administered alone
Procedure: This experiment was conducted broadly in accordance with Example 3, except that U87MG glioblastoma cells were substituted for PC-3 prostate cancer cells. Cells from a human glioblastoma tumor line (U87MG) were implanted subcutaneously into mice and grown until the tumors reached an average size of approximately 150 mg. […] There were 10 animals per treatment group.

[5] = tumor doubling time, individual animals
[6] = subjects progressed following 5-FU therapy
[7] = Mayo Clinic or Roswell Park regimen, newly diagnosed

Compound | Time to evaluation size ([1]; 750 mg, individual animals) | Tumor Growth Delay ([1]; same doses) [days] | % T/C Day 22 [1] [%] | % TFS (tumor free survivors) ([1]; same doses) | Td ([1]; group mean) [days] | Td ([1]; group median) [days] | Time to evaluation size ([1]; group median) [days] | Complete regression ([1]; individual animals) | Partial regression ([1]; individual animals) | Tumor free survivor ([1]; individual animals) | Total CR [1] | Total PR [1] | Total TFS [1] | % CR (complete regression) ([1]; same doses) [%] | % PR (partial regression) ([1]; same doses) [%] | Apparent Net Tumor Cell Kill (logs) ([1]; same doses) | Td [1, 5] | further results
CC(=O)O[C@@]12CO[C@@H]1C[C@H](O)[C@@]1(C)C(=O)[C@H](O)C3=C(C)[C@@H](OC(=O)[C@H](O)[C@@H](NC(=O)OC(C)(C)C)c4ccccc4)C[C@@](O)([C@@H](OC(=O)c4ccccc4)[C@H]21)C3(C)C [Docetaxel, docetaxel] | 81.0 days (2×) and >160 days (2×) and 62.3 days and 89.1 days and 72.1 days and 69.0 days and 62.5 days and 66.5 days | 56.5 | 8 | Twenty percent and 20% | 8.8 | 8.8 | 76.5 | yes | no | no (8×) and yes (2×) | 10 | 0 | 2 | 100 | 0 | 1.13 | 5.1 days and 8.5 days and 9.4 days and 9.1 days and 13.2 days and 6.5 days and 13.4 days and 5.0 days | % T/C: tumor burden in treatment group compared to control ([1]; at day 160): 82.4%; Time to fold growth EP ([1]; group mean): 86.0 days; Time to fold growth EP ([1]; group median): 69.6 days; Time to fold growth EP ([1]; individual animals): 78.1 days and >160 days (2×) and 57.4 days and 81.6 days and 65.4 days and 58.5 days and 60.0 days and 73.3 days and 65.9 days; Anticancer activity of regimen ([1]; same doses): highly active; Average Survival ([1]; study to day 160): 108.6 days
CCc1c2c(nc3ccc(OC(=O)N4CCC(N5CCCCC5)CC4)cc13)-c1cc3c(c(=O)n1C2)COC(=O)[C@]3(O)CC [irinotecan] |  |  |  |  |  |  |  |  |  |  |  |  |  |  |  |  |  | Prolongation of survival vs best supportive care [2, 6]: 2.8 month; Prolongation of survival vs infusional 5-FU [2, 6]: 2.2 month
5-FU/leucovorin |  |  |  |  |  |  |  |  |  |  |  |  |  |  |  |  |  | Median survival [2, 7]: 12-14 months; Median time to disease progression [2, 7]: 4-5 months
Bevacizumab: recombinant humanized VEGF-A monoclonal antibody | 36.3 days and 24.4 days and 25.8 days and 33.0 days and 30.5 days and 25.2 days and 25.4 days and 44.3 days and 18.0 days and 22.7 days | 5.6 | 70 | 0% | 12.2 | 9.6 | 25.6 | no | no | no | 0 | 0 | 0 | 0 | 0 | −4.91 | 16.9 days and 7.4 days and 7.5 days and 13.7 days and 16.8 days and 10.6 days and 8.6 days and 27.8 days and 4.8 days and 8.4 days | Time to evaluation size ([1]; group mean): 28.6 days; Tumor regressions ([1]; same doses): No tumor regressions were observed; Mean Tumor Vol. at D30 (mm3) [3]: 596.7 mm3; % T/C ([3]; listed as Avastin): 30.4%; % T/C ([3]; listed as bevacizumab): 30.4%; Effect on tumor growth [4]: only a minor effect
